Laboratory results as given in ChEMBL document CHEMBL5241058, “Pyrazole-based analogs as potential antibacterial agents against methicillin-resistance staphylococcus aureus (MRSA) and its SAR elucidation” (Eur J Med Chem, 2021).
In brackets after ≈: the same amount, converted by molar mass. Several values for one entry are separate records, joined by “and”; a condition that tells them apart may be missing. Equal values may be shown once.

What was measured:
Staphylococcus aureus [1] = assay: Antimicrobial activity against vancomycin intermediate-resistant Staphylococcus aureus assessed as bacterial growth inhibition incubated for 24 hrs by microdilution method; assay type: functional
Staphylococcus aureus [2] = assay: Antimicrobial activity against Methicillin-resistant Staphylococcus aureus MW2 assessed as bacterial growth inhibition incubated for 18 hrs by microdilution method; assay type: functional
Staphylococcus aureus [3] = assay: Antimicrobial activity against Methicillin-resistant Staphylococcus aureus ATCC 33592 assessed as bacterial growth inhibition incubated for 20 to 24 hrs by microdilution method; assay type: functional; details: time 20-24 hrs
Pseudomonas aeruginosa = assay: Antimicrobial activity against Pseudomonas aeruginosa ATCC 27853 assessed as bacterial growth inhibition incubated for 18 hrs by microdilution method; assay type: functional
[4] = system: Salmonella enterica subsp. enterica; assay: Antimicrobial activity against Salmonella typhimurium […] assessed as bacterial growth inhibition incubated for 18 hrs by microdilution method; assay type: functional
Klebsiella pneumoniae = assay: Antimicrobial activity against Klebsiella pneumoniae ATCC 314588 assessed as bacterial growth inhibition incubated for 18 hrs by microdilution method; assay type: functional
Staphylococcus aureus [5] = assay: Antimicrobial activity against Methicillin-resistant Staphylococcus aureus ATCC BAA 1683 assessed as bacterial growth inhibition incubated for 18 hrs by microdilution method; assay type: functional
Escherichia coli = assay: Antimicrobial activity against Escherichia coli ATCC 8739 assessed as bacterial growth inhibition incubated for 18 hrs by microdilution method; assay type: functional
Staphylococcus aureus [6] = assay: Antimicrobial activity against Methicillin-resistant Staphylococcus aureus assessed as bacterial growth inhibition; assay type: functional
Staphylococcus aureus [7] = assay: Antimicrobial activity against Methicillin-sensitive Staphylococcus aureus ATCC 43300 assessed as bacterial growth inhibition by microbroth serial dilution method; assay type: functional
Staphylococcus aureus [8] = assay: Antimicrobial activity against Methicillin-sensitive Staphylococcus aureus ATCC 33591 assessed as bacterial growth inhibition incubated for 24 hrs; assay type: functional
Staphylococcus aureus [9] = assay: Antimicrobial activity against Methicillin-sensitive Staphylococcus aureus ATCC 43300 assessed as bacterial growth inhibition incubated for 24 hrs; assay type: functional; details: ATCC43300
Staphylococcus aureus [10] = assay: Antimicrobial activity against Methicillin-sensitive Staphylococcus aureus ATCC 33591 assessed as bacterial growth inhibition by microbroth serial dilution method; assay type: functional
Staphylococcus aureus [11] = assay: Antimicrobial activity against Methicillin-resistant Staphylococcus aureus ATCC 700699 assessed as bacterial growth inhibition incubated for 20 to 24 hrs by microdilution method; assay type: functional; details: time 20-24 hrs
[12] = target: T1, Dihydrofolate reductase (Homo sapiens) (UniProt P00374); assay: Inhibition of human DHFR using TMB as substrate incubated for 1.5 hrs by ELISA assay relative to control; details: concentration not given here
T1 sequence (whole entry): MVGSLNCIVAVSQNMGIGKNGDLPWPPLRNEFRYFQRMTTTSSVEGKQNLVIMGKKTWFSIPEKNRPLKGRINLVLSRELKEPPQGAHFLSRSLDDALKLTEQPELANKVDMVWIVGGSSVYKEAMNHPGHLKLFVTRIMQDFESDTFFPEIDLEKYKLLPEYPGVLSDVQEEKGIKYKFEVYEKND

Staphylococcus aureus [13] = assay: Antimicrobial activity against Methicillin-resistant Staphylococcus aureus CCARM 3506 assessed as bacterial growth inhibition incubated for 24 hrs by ELISA assay; assay type: functional
Staphylococcus aureus [14] = assay: Antimicrobial activity against Methicillin-resistant Staphylococcus aureus assessed as bacterial growth inhibition incubated for 24 hrs; assay type: functional
Staphylococcus aureus [15] = assay: Antimicrobial activity against Methicillin-resistant Staphylococcus aureus assessed as bacterial growth inhibition by disc diffusion method; assay type: functional
Staphylococcus aureus [16] = assay: Antimicrobial activity against Methicillin-resistant Staphylococcus aureus ATCC 33591 assessed as bacterial growth inhibition incubated for 20 to 24 hrs by microdilution method; assay type: functional; details: time 20-24 hrs
Staphylococcus aureus [17] = assay: Antimicrobial activity against Methicillin sensitive Staphylococcus aureus assessed as bacterial growth inhibition incubated for 18 hrs; assay type: functional
Staphylococcus aureus [18] = assay: Antimicrobial activity against Methicillin-resistant Staphylococcus aureus ATCC 43300 assessed as bacterial growth inhibition; assay type: functional

In the case of `CCCc1c(-c2ccc(O)cc2)nn(-c2ccc(O)cc2)c1-c1ccc(O)cc1` [PROPYLPYRAZOLETRIOL], the MIC (Staphylococcus aureus [1]) is reported as 8 µg/mL (≈ 20.7 µM) and the MIC (Staphylococcus aureus [2]) is reported as 8 µg/mL (≈ 20.7 µM).
`O=C(O)c1ccc(-n2cc(/C=N/Nc3cccc(Cl)c3F)c(-c3cccc(F)c3)n2)cc1` was tested, and the MIC (Staphylococcus aureus [3]) was 0.78 µg/mL (≈ 1.72 µM).
`Fc1ccc(-c2nn(-c3ccccc3)cc2-c2nc3ccccn3c2Cc2ccccc2)cc1` was tested, and the MIC (Pseudomonas aeruginosa) was < 1 µg/mL, the MIC [4] was < 1 µg/mL and the MIC (Klebsiella pneumoniae) was < 1 µg/mL. For the same compound, the MIC (Staphylococcus aureus [5]) was 2.5 µg/mL (≈ 5.62 µM) and the MIC (Escherichia coli) was < 1 µg/mL.
For `O=C(O)c1cn(C2CC2)c2cc(N3CCNCC3)c(F)cc2c1=O` [CIPROFLOXACIN], the MIC (Pseudomonas aeruginosa) was > 1.8 µg/mL, the MBC (Staphylococcus aureus [6]) was 625 µg/mL (≈ 1890 µM) and the MIC [4] was > 1.8 µg/mL. The MIC (Klebsiella pneumoniae) was > 1.8 µg/mL, the MIC (Staphylococcus aureus [5]) was 1.84 µg/mL (≈ 5.55 µM) and the MIC (Escherichia coli) was > 1.8 µg/mL.
`CC(=O)NC[C@H]1CN(c2ccc(N3CCOCC3)c(F)c2)C(=O)O1` [LINEZOLID] showed an MBC (Staphylococcus aureus [7]) of 46.2 µM, an MIC (Staphylococcus aureus [7]) of 2.6 µM and an MBC (Staphylococcus aureus [8]) of 46.2 µM (≈ 15.6 µg/mL). The MBC (Staphylococcus aureus [9]) was 46.2 µM (≈ 15.6 µg/mL), the MIC (Staphylococcus aureus [10]) was 2.6 µM and the MIC (Staphylococcus aureus [10]; Staphylococcus aureus, ATCC 33591, read-out: MIC) was 5.2 µM.
For `O=C(O)c1ccc(-n2cc(/C=N/Nc3ccc([N+](=O)[O-])cc3)c(-c3cccc(F)c3)n2)cc1`, the MIC (Staphylococcus aureus [11]) was 0.78 µg/mL (≈ 1.75 µM).
Compound `Cc1nn(-c2ccc(Cl)cc2Cl)c(Oc2ccc(Cl)cc2Cl)c1C1N=C(N)NC(NCCc2ccccc2)=N1` (stereo not drawn) has an inhibition [12] of 43% and an MIC (Staphylococcus aureus [13]) of 0.5 µg/mL (≈ 0.829 µM).
`Cc1nn(-c2ccccc2)c(Cl)c1/C=C/c1ccc([N+](=O)[O-])cc1[N+](=O)[O-]` was tested, and the MIC (Staphylococcus aureus [14]) was 25 µg/mL (≈ 65 µM).
With `COc1ccc(Nc2n[nH]c(/N=C\c3ccccc3)c2C(=O)Nc2ccc(C)cc2)cc1` the MIC (Staphylococcus aureus [15]) was 15.6 µg/mL (≈ 36.7 µM).
With `CC(=O)c1nn(-c2ccc([N+](=O)[O-])cc2)cc1C(=O)c1cc2cc(CN3CCN(Cc4ccc5oc(C(=O)c6cn(-c7ccc([N+](=O)[O-])cc7)nc6C(C)=O)cc5c4)CC3)ccc2o1` the MBC (Staphylococcus aureus [7]) was 36.2 µM, the MIC (Staphylococcus aureus [7]) was 9 µM and the MBC (Staphylococcus aureus [8]) was 36.2 µM (≈ 31.2 µg/mL). The MBC (Staphylococcus aureus [9]) was 18.1 µM (≈ 15.6 µg/mL) and the MIC (Staphylococcus aureus [10]) was 18.1 µM and 9 µM.
`O=C(O)c1ccc(-n2cc(/C=N/Nc3ccc(Cl)cc3Cl)c(-c3cccc(F)c3)n2)cc1` was tested, and the MIC (Staphylococcus aureus [16]) was 0.39 µg/mL (≈ 0.831 µM).
For `COc1c(N2CCNC(C)C2)c(F)cc2c(=O)c(C(=O)O)cn(C3CC3)c12` (stereo not drawn) [GATIFLOXACIN], the MIC (Staphylococcus aureus [17]) was 0.06 µg/mL (≈ 0.16 µM).
Compound `CC(C)(C)c1cc(NC(=O)c2cccc(F)c2)n(-c2ccc(Cl)cc2)n1` has an MIC (Staphylococcus aureus [18]) of 3.12 µg/mL (≈ 8.39 µM).
